Tests used:
TNF-α = test: In vitro test of cytokine release: LPS-stimulated human whole blood / PBMCs, TNFα by ELISA; assay type: cell-based; settings: for IC50: LPS (E.coli 026:B6) stimulation 4 hours, table does not say whole blood or PBMCs; for TNF-α, value given in %: concentration not given
Protocol: (§1) They may be administered in one individual dose or in a plurality of doses. The activity spectrum of the compounds as inhibitors of cytokine release was examined using the test systems below, as described by C. Donat and S. Laufer in Arch. Pharm. Pharm. […] 1, 1-40, 2000.
(§2) The reaction is stopped by placing the samples on ice, adding DPBS buffer and then centrifuging at 1000*g for 15 min. The amount of IL-1β and TNFα in the plasma supernatant is then determined by ELISA.
(§3) The cells are washed twice with DPBS buffer, resuspended in macrophage SFM medium and adjusted to a cell count of 1*10^6 cells/ml.
(§4) The reaction is stopped by placing the samples on ice, adding DPBS buffer and then centrifuging at 15 880*g for 12 min. The amount of IL-1β and TNFα in the plasma supernatant is then determined by ELISA.

IL-1β = test: In vitro test of cytokine release: LPS-stimulated human whole blood / PBMCs, IL-1β by ELISA; assay type: cell-based; settings: for IC50: LPS (E.coli 026:B6) stimulation 4 hours, table does not say whole blood or PBMCs
Protocol: as §1, §2, §3, §4

In the case of `CCCn1c(Sc2ccccc2)nc(-c2ccc(F)cc2)c1-c1ccncc1` [Example 52, 4-(4-Fluorophenyl)-2-phenylthio-1-n-propyl-5-(4-pyridyl)imidazole], the IC50 (TNF-α; Homo sapiens, Table 1) is reported as 14 µM and the IC50 (IL-1β; Homo sapiens, Table 1) is reported as 1 µM.
With `CCCn1c(Sc2ccc(Cl)cc2)nc(-c2ccc(F)cc2)c1-c1ccncc1` [Example 53, 2-(4-Chlorophenyl)thio-4-(4-fluorophenyl)-1-n-propyl-5-(4-pyridyl)-imidazole] the IC50 (TNF-α; Homo sapiens, Table 1) was 29 µM and the IC50 (IL-1β; Homo sapiens, Table 1) was 3.3 µM.
`CCCn1c(Sc2ccc(SC)cc2)nc(-c2ccc(F)cc2)c1-c1ccncc1` [Example 54, 4-(4-Fluorophenyl)-2-(4-methylsulfanyl)phenylsulfanyl-1-n-propyl-5-(4-pyridyl)imidazole] was tested, and the IC50 (TNF-α; Table 1) was 68 µM and the IC50 (IL-1β; Table 1) was 2.5 µM.
In the case of `CCCn1c(Sc2ccc([S+](C)[O-])cc2)nc(-c2ccc(F)cc2)c1-c1ccncc1` (stereo not shown) [Example 55, 4-(4-Fluorophenyl)-2-[(4-methylsulfinyl)phenyl]thio-1-n-propyl-5-(4-pyridyl)imidazole], the IC50 (TNF-α; Table 1) is reported as 6.2 µM and the IC50 (IL-1β; Table 1) is reported as 0.72 µM.
`CCCn1c(Sc2ccc(S(C)(=O)=O)cc2)nc(-c2ccc(F)cc2)c1-c1ccncc1` [Example 56, 4-(4-Fluorophenyl)-2-[(4-methylsulfonyl)phenyl]thio-1-n-propyl-5-(4-pyridyl)imidazole] was tested, and the IC50 (TNF-α; Table 1) was 19 µM and the IC50 (IL-1β; Table 1) was 1.5 µM.
`Cc1nc(S)n(-c2ccc(F)cc2)c1-c1ccncc1` [Example 57, 1-(4-Fluorophenyl)-4-methyl-5-(4-pyridyl)imidazole-2-thiol] was tested, and the “TNF-α, value given in %” value (TNF-α; Table 1) was 34% and the IC50 (IL-1β; Homo sapiens, Table 1) was 19 µM.
With `Cc1c(-c2ccc(F)cc2)nc(S)n1-c1cccnc1` [Example 58, 4-(4-Fluorophenyl)-5-methyl-1-(3-pyridyl)imidazole-2-thiol] the “TNF-α, value given in %” value (TNF-α; Table 1) was 32% and the IC50 (IL-1β; Homo sapiens, Table 1) was 28 µM.
`CCCn1c(S)nc(-c2ccncc2)c1-c1ccc(F)cc1` [Example 59] was tested, and the IC50 (TNF-α; Table 1) was 83 µM and the “IL-1β, value given in %” value (IL-1β; Table 1, concentration not given) was 16%.
`CSc1nc(-c2ccc(F)cc2)c(-c2ccnc(NC(C)=O)c2)n1C` [Example 61, 4-(4-Fluorophenyl)-1-methyl-5-(2-acetamido-4-pyridyl)-2-methyl-thioimidazole] was tested, and the IC50 (TNF-α; Homo sapiens, Table 2) was 0.87 µM and the IC50 (IL-1β; Homo sapiens, Table 2) was 0.07 µM.
`CCCn1c(SC)nc(-c2ccc(F)cc2)c1-c1ccnc(NC(C)=O)c1` [Example 62, 4-(4-Fluorophenyl)-1-n-propyl-5-(2-acetamido-4-pyridyl)-2-methyl-thioimidazole] showed an IC50 (TNF-α; Homo sapiens, Table 2) of 0.49 µM and an IC50 (IL-1β; Homo sapiens, Table 2) of 0.12 µM.
`CSc1nc(-c2ccc(F)cc2)c(-c2ccnc(NC(C)=O)c2)n1C1CC(C)(C)NC(C)(C)C1` [Example 63, 4-(4-Fluorophenyl)-1-(2,2,6,6-tetramethylpiperidin-4-yl)-5-(2-acetamido-4-pyridyl)-2-methylthioimidazole] gave an IC50 (TNF-α; Homo sapiens, Table 2) of 4.5 µM and an IC50 (IL-1β; Homo sapiens, Table 2) of 0.46 µM.
For `CSc1nc(-c2ccc(F)cc2)c(-c2ccnc(N)c2)n1C` [Example 66, 4-(4-Fluorophenyl)-1-methyl-5-(2-amino-4-pyridyl)-2-methyl-thioimidazole], the IC50 (TNF-α; Homo sapiens, Table 2) was 2.3 µM and the IC50 (IL-1β; Homo sapiens, Table 2) was 0.27 µM.
`COc1ccc(C(=O)Nc2cc(-c3c(-c4ccc(F)cc4)nc(SC)n3C)ccn2)cc1` [Example 67, 4-([lacuna]-Fluorophenyl)-1-methyl-5-[2-(4-methoxybenzamido)-4-pyridyl]-2-methylthioimidazole] was tested, and the IC50 (TNF-α; Homo sapiens, Table 2) was 0.64 µM and the IC50 (IL-1β; Homo sapiens, Table 2) was 0.44 µM.
For `CSc1nc(-c2ccc(F)cc2)c(-c2ccnc(NCc3ccccc3)c2)n1C` [Example 70, 4-(4-Fluorophenyl)-1-methyl-5-(2-benzylamino-4-pyridyl)-2-methyl-thioimidazole], the IC50 (TNF-α; Homo sapiens, Table 2) was 0.39 µM and the IC50 (IL-1β; Homo sapiens, Table 2) was 0.08 µM.
For `CCNc1cc(-c2c(-c3ccc(F)cc3)nc(SC)n2C)ccn1` [Example 73], the IC50 (TNF-α; Homo sapiens, Table 2) was 0.35 µM and the IC50 (IL-1β; Homo sapiens, Table 2) was 0.05 µM.
`CCCn1c(SC)nc(-c2ccc(F)cc2)c1-c1ccnc(NCC)c1` [Example 74, 4-(4-Fluorophenyl)-1-n-propyl-5-(2-ethylamino-4-pyridyl)-2-methylthioimidazole] gave an IC50 (TNF-α; Homo sapiens, Table 2) of 0.41 µM and an IC50 (IL-1β; Homo sapiens, Table 2) of 0.15 µM.
Compound `CCNc1cc(-c2c(-c3ccc(F)cc3)nc(SC)n2C2CC(C)(C)NC(C)(C)C2)ccn1` [Example 75] has an IC50 (TNF-α; Homo sapiens, Table 2) of 2.9 µM and an IC50 (IL-1β; Homo sapiens, Table 2) of 0.62 µM.
